{"source": "paper PMC9959244", "about": "“Revisiting the Solubility–Permeability Relationship with Hydrophobic Drug Umifenovir in Pluronic Solutions: Impact of pH and Co-Solvent” (Pharmaceutics, 2023)", "key": {"[1]": {"assay": "Quantitative parameters of UMF solubilization by F-127 micelles (from phase solubility plots)", "format": "physicochemical", "description": "To elucidate the solubilizing potential of the micelles of F-127 towards UMF, we determined the solubilizing capacity (χ) equal the amount of UMF solubilized by one mole of F-127 using the equation given in Stephenson et al.:(2) χ=(S2−S20)/(Cpolym−cmc)=(SUMF−SUMF0)/(CF−127−cmc) where S2 and S20 are the total compound solubility at a specific polymer concentration in the solution and the intrinsic solubility, respectively, Cpolym is the polymer (F-127) concentration, cmc is the polymer critical micelle concentration, expressed in mol∙L^−1, and (Cpolym—cmc) is the concentration of the micelles. […] Solubilizing capacities were determined from the slopes of the dependences illustrated in Figure S2. […]\nMicelle formation occurs above the critical micelle concentration and is accompanied by the removal of the hydrophobic tails of F-127 molecules from the aqueous surroundings, the association of monomers and the decrease of the free energy of the entire system. […] In order to quantify the apparent free energy of solubilization (transferring of the compound from the aqueous to the micellar phase) at 310.15 K, the following equation was applied:(4) ΔGS310.15K=−RT⋅lnKm/w where ΔGS310.15K is the apparent solubilization free energy, R is the universal gas constant, and Km/w is the micelle/water partition coefficient of UMF. […]"}, "[2]": {"assay": "PXRD analysis of solid residuals after solubility experiments", "format": "physicochemical", "protocol": "The powder XRD data were recorded under ambient conditions on a D2 Phaser (Bragg Brentano) diffractometer (Bruker AXS, Karlsruhe, Germany) with a copper X-ray source (λCuKα1 = 1.5406Å) and a high-resolution position-sensitive LYNXEYE XE-T detector. The samples were placed into the plate sample holders and rotated at a speed of 15 rpm during the data acquisition.\nIn order to trace possible transformations of the UMF base, the solid residuals left after each solubility experiment were isolated, dried under air and subjected to PXRD analysis together with the raw UMF base and UMF∙HCl∙H2O. […] Importantly, all the parameters obtained for the acidic solutions (solubility, permeability, micellization, and aggregation characteristics) refer to UMF∙HCl∙H2O, in spite of the fact that initially the UMF base was subjected to the experiments."}, "[3]": {"assay": "In vitro permeability, Franz diffusion cell", "format": "in vitro ADME", "protocol": "The permeability coefficients of UMF were measured in a Franz diffusion cell of a vertical type (PermeGear, Inc., Hellertown, PA, USA) at 310.15 ± 0.1 K. The experimental setup is fully described and illustrated in our previous study. All the experiments were carried out with the help of a regenerated cellulose membrane with a molecular weight cut-off (MWCO) of 12–14 kDa (Standard Grade RC Dialysis Membrane, Flat Width 45 mm) pretreated with water for 30 min and dried under air. A cellulose membrane MWCO 6–8 kDa was additionally used for several experiments. The membrane effective surface area was 0.785 cm^2. It was placed between the donor (7 mL of the stock UMF solution) and acceptor (pure solvent without UMF—blank solution) chambers. In the case of the pH 2.0 donor solution, the blank solution at pH 7.4 was applied in the acceptor chamber in order to simulate the compound transfer to the blood plasma. Samples of 0.5 mL were withdrawn every 30 min from the acceptor chamber and replaced with an equal amount of pure buffer pH 7.4. The solutions were analyzed using a plate-type spectrophotometer (Spectramax 190; Molecular devices, Molecular Devices Corporation, California, USA) and a 96-well UV black plate (Costar). The plot of the cumulative amount of the compound (Q) permeated through the membrane of effective surface area (A) versus time (t) was constructed and the apparent permeability coefficient (Papp) was calculated by the equation:Papp = J/C0(1) where J is the flux through the membrane derived as a slope of the permeation plot (J = dQ/(A·dt)), and C0 is the UMF concentration in the donor solution. Papp values were taken as an average of at least 3 or more experiments."}}, "data": [{"smiles": "CCOC(=O)c1c(CSc2ccccc2)n(C)c2cc(Br)c(O)c(CN(C)C)c12", "note": "[UMF, 6-bromo-4-dimethylaminomethyl-5-hydroxy-1-methyl-2-phenylthiomethyl indole-3-carboxylic acid ethyl ester]", "values": [{"measurement": "Higher solubilizing potential of F-127 (Km/w) towards UMF base at pH 7.4 vs UMF∙HCl∙H2O at pH 2.0", "setting": "[1]", "value": "approximately 5.4 fold"}, {"measurement": "logKm/w", "setting": "[1]; UMF-buffer pH 7.4-pluronic F-127 system", "value": 3.88}, {"measurement": "Solid phase after dissolution (PXRD)", "setting": "[2]; acidic buffer (pH 2.0)", "value": "transformed into the apparently more stable hydrochloride monohydrate"}, {"measurement": "Solid phase after dissolution (PXRD)", "setting": "[2]; all the systems with buffer pH 7.4", "value": "No transformations"}, {"measurement": "Permeability coefficient in pure buffer pH 7.4 greater than in pH 2.0", "setting": "[3]", "value": 2.1, "unit": "fold"}, {"measurement": "Permeability increase by EtOH in buffer pH 7.4", "setting": "[3]; 10% EtOH", "value": 1.4, "unit": "fold"}, {"measurement": "Permeability increase by EtOH in buffer pH 7.4", "setting": "[3]; 20% EtOH", "value": 1.2, "unit": "fold"}, {"measurement": "Permeability reduction by 4.0% F-127 vs pure buffer", "setting": "[3]; buffer pH 7.4", "value": 2.35, "unit": "fold"}, {"measurement": "Papp in 20% EtOH + 1.5% F-127 lower than in buffer pH 7.4 + 1.5% F-127", "setting": "[3]; pH 7.4", "value": 5.1, "unit": "fold"}, {"measurement": "Papp in 20% EtOH + 1.5% F-127 lower than in buffer pH 7.4 +20% EtOH", "setting": "[3]; pH 7.4", "value": 10.8, "unit": "fold"}, {"measurement": "Papp in 20% EtOH + 1.5% F-127 lower than in pure buffer pH 7.4", "setting": "[3]; pH 7.4", "value": 9.1, "unit": "fold"}]}]}
